# In patent US8946394B2, “Conjugate for photodynamic diagnosis or therapy and method for preparing same” (Panaxem Co., Ltd., priority 2010, dated 2015):
# System: HeLa cells
# Assay: Cytotoxicity test (MTT) with and without near infrared irradiation
# Assay type: cell-based
# Description: Cytotoxicity test was conducted on the nano-microsphere according to the present invention prepared from Example 1. HeLa cells as cancer cells were incubated in the RPMI 1640 culture medium containing 10% FBS and 1% penicillin in the presence of 5% CO2 at a temperature of 37° C. Then, for the cytotoxicity test, the incubated HeLa cells were dispensed on a 96-well plate at a cell number of 1×10^4 and then incubated for 24 hours. Next day, the nano-microspheres (nano-microspheres added with 1.25 mg of a photosensitizer) according to the present invention were diluted by concentrations, respectively, and then the diluted concentrations were put into each well at 100 μl.
# After that, the cells were further incubated for 12 hours so that the nano-microspheres can act on the cells, and then near infrared wavelength light (670 nm) was irradiated at an amount of 1.2 J/cm^2. […]
# Lastly, 20 μl of MTT reagent (3-(4,5-dimethylthiazol-2yl)-2,5-diphenyl-2H-tetrazolium bromide) was added to the cells after incubation was completed, followed by again incubating for 3˜4 hours. […] After that, the ELIZA analyzer was used to measure absorbance at 595 nm and thus comparison of the amount of formazan formed was conducted, to thereby confirm cell viability (%) and cytotoxicity of the conjugate (FIGS. 15 and 16).
structure (smiles),measurement,setting,value
CCCC(C)(C)c1cc(Oc2ccc3c(c2)/C2=N/c4c5ccc(Oc6cc(C(C)(C)CCC)c(OC)cc6C(C)(C)CCC)cc5c5[n]4[Zn][n]4/c(c6ccc(Oc7cc(C(C)(C)CCC)c(OC)cc7C(C)(C)CCC)cc6/c4=N/C3=N2)=N\C2=NC(=N\5)/c3ccc(Oc4ccc(C(=O)O)cc4)cc32)c(C(C)(C)CCC)cc1OC [Zn-Pc-COOH],apoptosis / cell viability (%),"near infrared ray (670 nm, 1.2 J/cm^2) irradiated",apoptosis occurred in proportional to the time for irradiation
same,apoptosis / cell viability (%),near infrared ray not irradiated,apoptosis did not occur
